Laboratory results taken from US10829520B2, “Beta-hairpin peptidomimetics” (POLYPHOR AG, priority 2015, dated 2020).
Where a SMILES comes first, the peptide text is derived from it. Bridges are numbered along the chain shown (N, C = ends). [ ]: non-standard residue; d: D form. Tle = CC(C)(C)[C@H](N)C(=O)O; Nle = CCCC[C@H](N)C(=O)O; Dab = NCC[C@H](N)C(=O)O; Aib = CC(C)(N)C(=O)O

What was measured:
Format in all cases: cell-based
[1] = test system: human red blood cells (hRBC); assay: Hemolysis of human red blood cells; conditions: red cells of human, 1 h, 100 μg/mL
Procedure, shortened: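 Washed fresh human erythrocytes (20% v/v, ~0.9×10^9 cells/mL final) were incubated with peptides at 100 μg/mL for 1 h at 37 °C with shaking. Supernatant OD540 measured; hemolysis expressed as % of 2.5% Triton X-100 lysis, with PBS/0.001% acetic acid as 0%.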

Escherichia coli 926415 = conditions: 926415
[2] = test system: Acinetobacter baumannii 872842; conditions: 872842
[3] = test system: Escherichia coli ATCC 25922; conditions: ATCC 25922
Procedure, shortened: (§1)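 Read-out is the minimal inhibitory concentration in μg/mL, taken as the lowest peptide level without visible growth after 18-20 h at 35° C. Testing followed CLSI broth microdilution in cation-adjusted Mueller-Hinton II broth plus 0.002% Polysorbate 80, with roughly 10^6 CFU/mL.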

[4] = test system: Pseudomonas aeruginosa ATCC 27853; conditions: ATCC 27853
Procedure, shortened: as §1

[5] = test system: Klebsiella pneumoniae SSI #3010; conditions: SSI #3010
Procedure, shortened: as §1

[6] = test system: Klebsiella pneumoniae 968733; conditions: 968733
[7] = test system: Acinetobacter baumannii DSM 30008; conditions: DSM 30008
Procedure, shortened: as §1

Row | SMILES | Hemolysis at 100 μg/mL [1] [%] | Escherichia coli 926415 MIC (Escherichia coli 926415) [µg/mL] | Acinetobacter baumannii 872842 MIC [2] [µg/mL] | Escherichia coli ATCC 25922 MIC [3] [µg/mL] | Pseudomonas aeruginosa ATCC 27853 MIC [4] [µg/mL] | Klebsiella pneumoniae SSI #3010 MIC [5] [µg/mL] | Klebsiella pneumoniae 968733 MIC [6] [µg/mL] | Acinetobacter baumannii DSM 30008 MIC [7] [µg/mL]
1 | CCCC[C@@H]1NC(=O)[C@@H]2CCCN2C(=O)[C@H]2CCCN2C(=O)[C@H](CO)NC(=O)[C@H](C)NC(=O)[C@H](C(C)(C)C)NC(=O)[C@@H](NC(=O)[C@H](Cc2c[nH]c3ccccc23)NC(C)=O)CSSC[C@@H](C(=O)N[C@@H](CCN)C(=O)N[C@@H](CCN)C(=O)N[C@H](C(=O)N[C@@H](CCN)C(=O)N[C@H]2CCNC(=O)[C@H]([C@@H](C)O)NC(=O)[C@H](CCN)NC(=O)[C@H](CCN)NC(=O)[C@H](CC(C)C)NC(=O)[C@@H](Cc3ccccc3)NC(=O)[C@H](CCN)NC2=O)[C@@H](C)O)NC(=O)[C@H](Cc2ccc(O)cc2)NC(=O)[C@H](CO)NC1=O [Ex. 27] (Ac-WC[Tle]AS[dP]P[Nle]SYC[Dab][Dab]T[Dab][Dab][Dab][dF]L[Dab][Dab]T; disulfide 2-11; lactam 16-C) | <1 | 0.5 | 0.125 | 0.0625 | 0.25 | 0.125 | 0.5 | 0.125
2 | CCCC[C@@H]1NC(=O)[C@@H]2CCCN2C(=O)[C@H]2CCCN2C(=O)[C@H](CO)NC(=O)[C@H](C)NC(=O)[C@H](C(C)(C)C)NC(=O)[C@@H](NC(=O)[C@H](Cc2c[nH]c3ccccc23)NC(C)=O)CSSC[C@@H](C(=O)N[C@@H](C)C(=O)N[C@@H](CCN)C(=O)N[C@H](C(=O)N[C@@H](CCN)C(=O)N[C@H]2CCNC(=O)[C@H]([C@@H](C)O)NC(=O)[C@H](CCN)NC(=O)[C@H](CCN)NC(=O)[C@H](CC(C)C)NC(=O)[C@@H](Cc3ccccc3)NC(=O)[C@H](CCN)NC2=O)[C@@H](C)O)NC(=O)[C@H](Cc2ccc(O)cc2)NC(=O)[C@H](CO)NC1=O [Ex. 28] (Ac-WC[Tle]AS[dP]P[Nle]SYCA[Dab]T[Dab][Dab][Dab][dF]L[Dab][Dab]T; disulfide 2-11; lactam 16-C) | 1 | 1.5 | 1 | 0.25 | 0.5 | 0.25 | 0.375 | 0.5
3 | CCCC[C@@H]1NC(=O)[C@@H]2CCCN2C(=O)[C@H]2CCCN2C(=O)[C@H](CO)NC(=O)[C@H](C)NC(=O)[C@H](C(C)(C)C)NC(=O)[C@@H](NC(=O)[C@H](Cc2c[nH]c3ccccc23)NC(C)=O)CSSC[C@@H](C(=O)N[C@H](C)C(=O)N[C@@H](CCN)C(=O)N[C@H](C(=O)N[C@@H](CCN)C(=O)N[C@H]2CCNC(=O)[C@H]([C@@H](C)O)NC(=O)[C@H](CCN)NC(=O)[C@H](CCN)NC(=O)[C@H](CC(C)C)NC(=O)[C@@H](Cc3ccccc3)NC(=O)[C@H](CCN)NC2=O)[C@@H](C)O)NC(=O)[C@H](Cc2ccc(O)cc2)NC(=O)[C@H](CO)NC1=O [Ex. 29] (Ac-WC[Tle]AS[dP]P[Nle]SYC[dA][Dab]T[Dab][Dab][Dab][dF]L[Dab][Dab]T; disulfide 2-11; lactam 16-C) | <1 | 1 | 0.25 | 0.125 | 0.5 | 0.25 | 1 | 0.25
4 | CCCC[C@@H]1NC(=O)[C@@H]2CCCN2C(=O)[C@H]2CCCN2C(=O)[C@H](CO)NC(=O)[C@H](C)NC(=O)[C@H](C(C)(C)C)NC(=O)[C@@H](NC(=O)[C@H](Cc2c[nH]c3ccccc23)NC(C)=O)CSSC[C@@H](C(=O)NC(C)(C)C(=O)N[C@@H](CCN)C(=O)N[C@H](C(=O)N[C@@H](CCN)C(=O)N[C@H]2CCNC(=O)[C@H]([C@@H](C)O)NC(=O)[C@H](CCN)NC(=O)[C@H](CCN)NC(=O)[C@H](CC(C)C)NC(=O)[C@@H](Cc3ccccc3)NC(=O)[C@H](CCN)NC2=O)[C@@H](C)O)NC(=O)[C@H](Cc2ccc(O)cc2)NC(=O)[C@H](CO)NC1=O [Ex. 30] (Ac-WC[Tle]AS[dP]P[Nle]SYC[Aib][Dab]T[Dab][Dab][Dab][dF]L[Dab][Dab]T; disulfide 2-11; lactam 16-C) | <1 | 1 | 1 | 0.25 | 0.5 | 0.25 | 0.25 | 0.25
5 | CCCC[C@@H]1NC(=O)[C@@H]2CCCN2C(=O)[C@H]2CCCN2C(=O)[C@H](CO)NC(=O)[C@H](C)NC(=O)[C@H](C(C)(C)C)NC(=O)[C@@H](NC(=O)[C@H](Cc2c[nH]c3ccccc23)NC(C)=O)CSSC[C@@H](C(=O)N[C@@H](CCN)C(=O)NCC(=O)N[C@H](C(=O)N[C@@H](CCN)C(=O)N[C@H]2CCNC(=O)[C@H]([C@@H](C)O)NC(=O)[C@H](CCN)NC(=O)[C@H](CCN)NC(=O)[C@H](CC(C)C)NC(=O)[C@@H](Cc3ccccc3)NC(=O)[C@H](CCN)NC2=O)[C@@H](C)O)NC(=O)[C@H](Cc2ccc(O)cc2)NC(=O)[C@H](CO)NC1=O [Ex. 31] (Ac-WC[Tle]AS[dP]P[Nle]SYC[Dab]GT[Dab][Dab][Dab][dF]L[Dab][Dab]T; disulfide 2-11; lactam 16-C) | 2 | 1.5 | 1 | 0.5 | 1 | 0.25 | 0.75 | 0.125
6 | CCCC[C@@H]1NC(=O)[C@@H]2CCCN2C(=O)[C@H]2CCCN2C(=O)[C@H](CO)NC(=O)[C@H](C)NC(=O)[C@H](C(C)(C)C)NC(=O)[C@@H](NC(=O)[C@H](Cc2c[nH]c3ccccc23)NC(C)=O)CSSC[C@@H](C(=O)N[C@@H](CCN)C(=O)N[C@H](C(=O)N[C@H](C)C(=O)N[C@@H](CCN)C(=O)N[C@H]2CCNC(=O)[C@H]([C@@H](C)O)NC(=O)[C@H](CCN)NC(=O)[C@H](CCN)NC(=O)[C@H](CC(C)C)NC(=O)[C@@H](Cc3ccccc3)NC(=O)[C@H](CCN)NC2=O)[C@@H](C)O)NC(=O)[C@H](Cc2ccc(O)cc2)NC(=O)[C@H](CO)NC1=O [Ex. 32] (Ac-WC[Tle]AS[dP]P[Nle]SYC[Dab]T[dA][Dab][Dab][Dab][dF]L[Dab][Dab]T; disulfide 2-11; lactam 16-C) | 2 | 0.5 | 0.25 | 0.125 | 0.25 | 0.25 | 1 | 0.125
7 | CCCC[C@@H]1NC(=O)[C@@H]2CCCN2C(=O)[C@H]2CCCN2C(=O)[C@H](CO)NC(=O)[C@H](C)NC(=O)[C@H](C(C)(C)C)NC(=O)[C@@H](NC(=O)[C@H](Cc2c[nH]c3ccccc23)NC(C)=O)CSSC[C@@H](C(=O)N[C@@H](CCN)C(=O)N[C@H](C(=O)N[C@@H](CCN)C(=O)NCC(=O)N[C@H]2CCNC(=O)[C@H]([C@@H](C)O)NC(=O)[C@H](CCN)NC(=O)[C@H](CCN)NC(=O)[C@H](CC(C)C)NC(=O)[C@@H](Cc3ccccc3)NC(=O)[C@H](CCN)NC2=O)[C@@H](C)O)NC(=O)[C@H](Cc2ccc(O)cc2)NC(=O)[C@H](CO)NC1=O [Ex. 33] (Ac-WC[Tle]AS[dP]P[Nle]SYC[Dab]T[Dab]G[Dab][Dab][dF]L[Dab][Dab]T; disulfide 2-11; lactam 16-C) | 1 | 1 | 0.25 | 0.25 | 0.5 | 0.5 | 0.75 | 0.125
8 | CCCC[C@@H]1NC(=O)[C@@H]2CCCN2C(=O)[C@H]2CCCN2C(=O)[C@H](CO)NC(=O)[C@H](C)NC(=O)[C@H](C(C)(C)C)NC(=O)[C@@H](NC(=O)[C@H](Cc2c[nH]c3ccccc23)NC(C)=O)CSSC[C@@H](C(=O)N[C@@H](CCN)C(=O)N[C@H](C(=O)N[C@@H](CCN)C(=O)N[C@@H](CCN)C(=O)N[C@H]2CCNC(=O)[C@H]([C@@H](C)O)NC(=O)[C@H](CCN)NC(=O)[C@H](CCN)NC(=O)[C@H](CC(C)C)NC(=O)[C@@H](Cc3ccccc3)NC(=O)[C@H](CCN)NC2=O)[C@@H](C)O)NC(=O)[C@H](Cc2ccc(O)cc2)NC(=O)[C@H](CO)NC1=O [Ex. 34] (Ac-WC[Tle]AS[dP]P[Nle]SYC[Dab]T[Dab][Dab][Dab][Dab][dF]L[Dab][Dab]T; disulfide 2-11; lactam 16-C) | 1 | 0.25 | 0.125 | 0.0625 | 0.125 | 0.125 | 1 | 0.25
